What was measured:
[1] = tested on: Cyperus serotinus, Rottb.; test: Preemergence weed control under flooded paddy conditions, CYPSE (Flatsedge); type: in vivo; settings: for CYPSE: preemergence weeds, herbicidal effect rating 0-9, three to four weeks after treatment; for CYPSE herbicidal effect rating / herbicidal effect rating, CYPSE: preemergence; for CYPSE herbicidal effect rating: rated three to four weeks after treatment; for herbicidal effect rating, CYPSE: rated 3-4 weeks after treatment
[2] = tested on: Echinochloa oryzoides (Ard.) Fritsch.; test: Preemergence weed control under flooded paddy conditions, ECHORC (Watergrass (Calif.)); type: in vivo; settings: flooded paddy; for ECHORC: preemergence weeds, herbicidal effect rating 0-9, three to four weeks after treatment; for ECHORC herbicidal effect rating / herbicidal effect rating, ECHORC: preemergence; for ECHORC herbicidal effect rating: rated three to four weeks after treatment; for herbicidal effect rating, ECHORC: rated 3-4 weeks after treatment
[3] = tested on: Oryza sativa, (L.) Tebonnet; test: Rice tolerance to post-transplant applications under flooded paddy conditions (Example 187), ORYSAT (Rice, Tebonnet); settings: for ORYSAT: herbicidal effect rating 0-9, three to four weeks after treatment; for ORYSAT herbicidal effect rating: rated three to four weeks after treatment; for herbicidal effect rating ORYSAT: rated 3-4 weeks after treatment; on herbicidal effect rating ORYSAT: meaning of each grade not given here
[4] = tested on: Sagittaria pygmaea, L.; test: Preemergence weed control under flooded paddy conditions, SAGPY (Arrowhead (Pygmaea)); type: in vivo; settings: flooded paddy; for SAGPY: preemergence weeds, herbicidal effect rating 0-9, three to four weeks after treatment; for SAGPY herbicidal effect rating / herbicidal effect rating, SAGPY: preemergence; for SAGPY herbicidal effect rating: rated three to four weeks after treatment; for herbicidal effect rating, SAGPY: rated 3-4 weeks after treatment
[5] = tested on: Monochoria vaginalis, Presl.; test: Preemergence weed control under flooded paddy conditions, MOOVA (Monochoria); type: in vivo; settings: flooded paddy; for MOOVA: preemergence weeds, herbicidal effect rating 0-9, three to four weeks after treatment; for MOOVA herbicidal effect rating / herbicidal effect rating, MOOVA: preemergence; for MOOVA herbicidal effect rating: rated three to four weeks after treatment; for herbicidal effect rating, MOOVA: rated 3-4 weeks after treatment
[6] = tested on: Cyperus iria; test: Preemergence weed control under flooded paddy conditions, CYPIR (Rice Flatsedge); type: in vivo; settings: flooded paddy; for CYPIR: preemergence weeds, herbicidal effect rating 0-9, three to four weeks after treatment; for CYPIR herbicidal effect rating / herbicidal effect rating, CYPIR: preemergence; for CYPIR herbicidal effect rating: rated three to four weeks after treatment; for herbicidal effect rating, CYPIR: rated 3-4 weeks after treatment

CCC(C#N)c1nsc2ccc(-n3c(=O)cc(C(F)(F)F)n(C)c3=O)cc12 (stereo not drawn) [Example 444, 1,2-Benzisothiazole-3-acetonitrile, 5-[3,6-dihydro-3-methyl-2,6-dioxo-4-(trifluoromethyl)-1(2H)-pyrimidinyl]-alpha-ethyl-]
CYPSE ([1]; 0.0320 kg/ha): 3.5 | CYPSE ([1]; 0.0620 kg/ha): 9.0 | CYPSE ([1]; 0.1250 kg/ha): 9.0 | CYPSE ([1]; 0.2500 kg/ha): 9.0 | ECHORC ([2]; 0.0320 kg/ha): 3.5 | ECHORC ([2]; 0.0620 kg/ha): 6.0 | ECHORC ([2]; 0.1250 kg/ha): 8.5 | ECHORC ([2]; 0.2500 kg/ha): 9.0 | ORYSAT ([3]; 0.0320 kg/ha): 4.5 | ORYSAT ([3]; 0.0620 kg/ha): 6.5 | ORYSAT ([3]; 0.1250 kg/ha): 9.0 | ORYSAT ([3]; 0.2500 kg/ha): 8.5 | SAGPY ([4]; 0.0320 kg/ha): 4.5 | SAGPY ([4]; 0.0620 kg/ha): 6.0 | SAGPY ([4]; 0.1250 kg/ha): 7.0 | SAGPY ([4]; 0.2500 kg/ha): 9.0 | MOOVA ([5]; 0.0320 kg/ha): 8.0 | MOOVA ([5]; 0.0620 kg/ha): 9.0 | MOOVA ([5]; 0.1250 kg/ha): 9.0 | MOOVA ([5]; 0.2500 kg/ha): 9.0 | CYPIR ([6]; 0.0320 kg/ha): 7.5 | CYPIR ([6]; 0.0620 kg/ha): 8.0 | CYPIR ([6]; 0.1250 kg/ha): 9.0 | CYPIR ([6]; 0.2500 kg/ha): 9.0

C=C(C(=O)OC)C(C)OCc1nsc2ccc(-n3c(=O)cc(C(F)(F)F)n(C)c3=O)cc12 (stereo not drawn) [Example 212, Methyl 3-{{5-[3,6-dihydro-3-methyl-2,6-dioxo-4-(trifluoromethyl)-1(2H)-pyrimidinyl]-1,2-benzisothiazol-3-yl}methoxy}-2-methylenebutyrate]
CYPSE herbicidal effect rating ([1]; Rate 0.0313 kg/ha): 0.0 | CYPSE herbicidal effect rating ([1]; Rate 0.0625 kg/ha): 0.0 | CYPSE herbicidal effect rating ([1]; Rate 0.1250 kg/ha): 0.0 | CYPSE herbicidal effect rating ([1]; Rate 0.2500 kg/ha): 0.0 | ECHORC herbicidal effect rating ([2]; Rate 0.0313 kg/ha): 0.0 | ECHORC herbicidal effect rating ([2]; Rate 0.0625 kg/ha): 0.0 | ECHORC herbicidal effect rating ([2]; Rate 0.1250 kg/ha): 2.0 | ECHORC herbicidal effect rating ([2]; Rate 0.2500 kg/ha): 4.0 | ORYSAT herbicidal effect rating ([3]; Rate 0.0313 kg/ha): 3.0 | ORYSAT herbicidal effect rating ([3]; Rate 0.0625 kg/ha): 4.0 | ORYSAT herbicidal effect rating ([3]; Rate 0.1250 kg/ha): 6.0 | ORYSAT herbicidal effect rating ([3]; Rate 0.2500 kg/ha): 7.0 | SAGPY herbicidal effect rating ([4]; Rate 0.0313 kg/ha): 0.0 | SAGPY herbicidal effect rating ([4]; Rate 0.0625 kg/ha): 0.0 | SAGPY herbicidal effect rating ([4]; Rate 0.1250 kg/ha): 0.0 | SAGPY herbicidal effect rating ([4]; Rate 0.2500 kg/ha): 0.0 | MOOVA herbicidal effect rating ([5]; Rate 0.0313 kg/ha): 4.0 | MOOVA herbicidal effect rating ([5]; Rate 0.0625 kg/ha): 8.0 | MOOVA herbicidal effect rating ([5]; Rate 0.1250 kg/ha): 9.0 | MOOVA herbicidal effect rating ([5]; Rate 0.2500 kg/ha): 9.0 | CYPIR herbicidal effect rating ([6]; Rate 0.0313 kg/ha): 0.0 | CYPIR herbicidal effect rating ([6]; Rate 0.0625 kg/ha): 0.0 | CYPIR herbicidal effect rating ([6]; Rate 0.1250 kg/ha): 0.0 | CYPIR herbicidal effect rating ([6]; Rate 0.2500 kg/ha): 2.0

CCOCN(C(=O)c1nsc2ccc(-n3c(=O)cc(C(F)(F)F)n(C)c3=O)cc12)S(=O)(=O)Cc1ccccc1 [Example 440, 1,2-Benzisothiazole-3-carboxamide, N-(benzylsulfonyl)-5-[3,6-dihydro-3-methyl-2,6-dioxo-4-(trifluoromethyl)-1(2H)-pyrimidinyl]-N-(ethoxymethyl)-]
CYPSE ([1]; 0.0320 kg/ha): 6.0 | CYPSE ([1]; 0.0620 kg/ha): 9.0 | CYPSE ([1]; 0.1250 kg/ha): 9.0 | CYPSE ([1]; 0.2500 kg/ha): 9.0 | ECHORC ([2]; 0.0320 kg/ha): 5.0 | ECHORC ([2]; 0.0620 kg/ha): 7.0 | ECHORC ([2]; 0.1250 kg/ha): 9.0 | ECHORC ([2]; 0.2500 kg/ha): 9.0 | ORYSAT ([3]; 0.0320 kg/ha): 3.0 | ORYSAT ([3]; 0.0620 kg/ha): 4.0 | ORYSAT ([3]; 0.1250 kg/ha): 4.0 | ORYSAT ([3]; 0.2500 kg/ha): 4.0 | SAGPY ([4]; 0.0320 kg/ha): 4.0 | SAGPY ([4]; 0.0620 kg/ha): 6.0 | SAGPY ([4]; 0.1250 kg/ha): 7.0 | SAGPY ([4]; 0.2500 kg/ha): 9.0 | MOOVA ([5]; 0.0320 kg/ha): 7.0 | MOOVA ([5]; 0.0620 kg/ha): 9.0 | MOOVA ([5]; 0.1250 kg/ha): 9.0 | MOOVA ([5]; 0.2500 kg/ha): 9.0 | CYPIR ([6]; 0.0320 kg/ha): 5.0 | CYPIR ([6]; 0.0620 kg/ha): 9.0 | CYPIR ([6]; 0.1250 kg/ha): 9.0 | CYPIR ([6]; 0.2500 kg/ha): 9.0

C#CCOC(=O)COc1c(-c2nsc3ccc(-n4c(=O)cc(C(F)(F)F)n(C)c4=O)cc23)ccc(C)c1C [Example 280, Acetic acid, {{6-[5-[3,6-dihydro-3-methyl-2,6-dioxo-4-(trifluoromethyl)-1(2H)-pyrimidinyl]-1,2-benzisothiazol-3-yl}-2,3-xylyl}oxy}-, 2-propynyl ester]
CYPSE herbicidal effect rating ([1]; Rate 0.0320 kg/ha): 0.0 | CYPSE herbicidal effect rating ([1]; Rate 0.0620 kg/ha): 0.0 | CYPSE herbicidal effect rating ([1]; Rate 0.1250 kg/ha): 0.0 | CYPSE herbicidal effect rating ([1]; Rate 0.2500 kg/ha): 2.0 | CYPSE herbicidal effect rating ([1]; Rate 0.5000 kg/ha): 3.0 | ECHORC herbicidal effect rating ([2]; Rate 0.0320 kg/ha): 0.0 | ECHORC herbicidal effect rating ([2]; Rate 0.0620 kg/ha): 5.7 | ECHORC herbicidal effect rating ([2]; Rate 0.1250 kg/ha): 7.6 | ECHORC herbicidal effect rating ([2]; Rate 0.2500 kg/ha): 9.0 | ECHORC herbicidal effect rating ([2]; Rate 0.5000 kg/ha): 9.0 | ORYSAT herbicidal effect rating ([3]; Rate 0.0320 kg/ha): 3.0 | ORYSAT herbicidal effect rating ([3]; Rate 0.0620 kg/ha): 3.0 | ORYSAT herbicidal effect rating ([3]; Rate 0.1250 kg/ha): 7.0 | ORYSAT herbicidal effect rating ([3]; Rate 0.2500 kg/ha): 8.0 | ORYSAT herbicidal effect rating ([3]; Rate 0.5000 kg/ha): 9.0 | SAGPY herbicidal effect rating ([4]; Rate 0.0320 kg/ha): 0.0 | SAGPY herbicidal effect rating ([4]; Rate 0.0620 kg/ha): 0.0 | SAGPY herbicidal effect rating ([4]; Rate 0.1250 kg/ha): 2.0 | SAGPY herbicidal effect rating ([4]; Rate 0.2500 kg/ha): 9.0 | SAGPY herbicidal effect rating ([4]; Rate 0.5000 kg/ha): 9.0 | MOOVA herbicidal effect rating ([5]; Rate 0.0320 kg/ha): 9.0 | MOOVA herbicidal effect rating ([5]; Rate 0.0620 kg/ha): 9.0 | MOOVA herbicidal effect rating ([5]; Rate 0.1250 kg/ha): 9.0 | MOOVA herbicidal effect rating ([5]; Rate 0.2500 kg/ha): 9.0 | MOOVA herbicidal effect rating ([5]; Rate 0.5000 kg/ha): 9.0 | CYPIR herbicidal effect rating ([6]; Rate 0.0320 kg/ha): 2.0 | CYPIR herbicidal effect rating ([6]; Rate 0.0620 kg/ha): 6.0 | CYPIR herbicidal effect rating ([6]; Rate 0.1250 kg/ha): 8.0 | CYPIR herbicidal effect rating ([6]; Rate 0.2500 kg/ha): 9.0 | CYPIR herbicidal effect rating ([6]; Rate 0.5000 kg/ha): 9.0

CCS(=O)(=O)NC(=O)COc1ccc(C)cc1-c1nsc2ccc(-n3c(=O)cc(C(F)(F)F)n(C)c3=O)cc12 [Example 554, Acetamide, 2-{{2-{5-[3,6-dihydro-3-methyl-2,6-dioxo-4-(trifluoromethyl)-1(2H)-pyrimidinyl)-1,2-benzisothiazol-3-yl}-p-tolyl}oxy}-N-(ethylsulfonyl)-]
herbicidal effect rating, CYPSE ([1]; Rate 0.0320 kg/ha): 0.0 | herbicidal effect rating, CYPSE ([1]; Rate 0.0620 kg/ha): 0.0 | herbicidal effect rating, CYPSE ([1]; Rate 0.1250 kg/ha): 4.0 | herbicidal effect rating, CYPSE ([1]; Rate 0.2500 kg/ha): 9.0 | herbicidal effect rating, CYPSE ([1]; Rate 0.5000 kg/ha): 9.0 | herbicidal effect rating, ECHORC ([2]; Rate 0.0320 kg/ha): 3.0 | herbicidal effect rating, ECHORC ([2]; Rate 0.0620 kg/ha): 4.1 | herbicidal effect rating, ECHORC ([2]; Rate 0.1250 kg/ha): 5.7 | herbicidal effect rating, ECHORC ([2]; Rate 0.2500 kg/ha): 9.0 | herbicidal effect rating, ECHORC ([2]; Rate 0.5000 kg/ha): 7.0 | herbicidal effect rating ORYSAT ([3]; Rate 0.0320 kg/ha): 4.0 | herbicidal effect rating ORYSAT ([3]; Rate 0.0620 kg/ha): 4.0 | herbicidal effect rating ORYSAT ([3]; Rate 0.1250 kg/ha): 6.0 | herbicidal effect rating ORYSAT ([3]; Rate 0.2500 kg/ha): 7.0 | herbicidal effect rating ORYSAT ([3]; Rate 0.5000 kg/ha): 6.0 | herbicidal effect rating, SAGPY ([4]; Rate 0.0320 kg/ha): 0.0 | herbicidal effect rating, SAGPY ([4]; Rate 0.0620 kg/ha): 0.0 | herbicidal effect rating, SAGPY ([4]; Rate 0.1250 kg/ha): 0.0 | herbicidal effect rating, SAGPY ([4]; Rate 0.2500 kg/ha): 9.0 | herbicidal effect rating, SAGPY ([4]; Rate 0.5000 kg/ha): 0.0 | herbicidal effect rating, MOOVA ([5]; Rate 0.0320 kg/ha): 9.0 | herbicidal effect rating, MOOVA ([5]; Rate 0.0620 kg/ha): 9.0 | herbicidal effect rating, MOOVA ([5]; Rate 0.1250 kg/ha): 9.0 | herbicidal effect rating, MOOVA ([5]; Rate 0.2500 kg/ha): 9.0 | herbicidal effect rating, MOOVA ([5]; Rate 0.5000 kg/ha): 9.0 | herbicidal effect rating, CYPIR ([6]; Rate 0.0320 kg/ha): 2.0 | herbicidal effect rating, CYPIR ([6]; Rate 0.0620 kg/ha): 7.0 | herbicidal effect rating, CYPIR ([6]; Rate 0.1250 kg/ha): 9.0 | herbicidal effect rating, CYPIR ([6]; Rate 0.2500 kg/ha): 9.0 | herbicidal effect rating, CYPIR ([6]; Rate 0.5000 kg/ha): 5.0

Reference: EP0908457B1, “3-(1,2-benzisothiazol- and isoxazol-5-Y1)-2,4(1H,3H)-pyrimidinedione or thione and 3-(1,2-benzisothiazol- and isoxazol-5-y1)-4(3H)-pyrimidinone or thione herbicidal agents” (BASF AKTIENGESELLSCHAFT, priority 1997, dated 1999)
